Measured values published in paper PMC5384001 (Scientific Reports, 2017).
Changes are numbered by the printed parent chain. “And” between values parts separate entries of the source, which are not always exact repeats. Equal entries are not always repeated.

What was measured:
GluD2-Lc-(HS1)GluN1 = molecular target: T1, GluD2-Lc-(HS1)GluN1 (Rattus norvegicus, UniProt Q63226, A654T/D542Y/S544G/Y543Q); experiment: Two-electrode voltage clamp in Xenopus oocytes, inhibition of spontaneous currents; assay type: cell-based; settings: fraction of spontaneous current inhibited by saturating D-serine
T1 construct: the function of full-length receptors as well, we introduced them into the GluD2 lurcher mutant (GluD2-Lc); expressed in transfected cells; host or cells: Xenopus laevis oocytes injected with cRNA
T1 sequence (Q63226 24-1007 D542Y/Y543Q/S544G/A654T): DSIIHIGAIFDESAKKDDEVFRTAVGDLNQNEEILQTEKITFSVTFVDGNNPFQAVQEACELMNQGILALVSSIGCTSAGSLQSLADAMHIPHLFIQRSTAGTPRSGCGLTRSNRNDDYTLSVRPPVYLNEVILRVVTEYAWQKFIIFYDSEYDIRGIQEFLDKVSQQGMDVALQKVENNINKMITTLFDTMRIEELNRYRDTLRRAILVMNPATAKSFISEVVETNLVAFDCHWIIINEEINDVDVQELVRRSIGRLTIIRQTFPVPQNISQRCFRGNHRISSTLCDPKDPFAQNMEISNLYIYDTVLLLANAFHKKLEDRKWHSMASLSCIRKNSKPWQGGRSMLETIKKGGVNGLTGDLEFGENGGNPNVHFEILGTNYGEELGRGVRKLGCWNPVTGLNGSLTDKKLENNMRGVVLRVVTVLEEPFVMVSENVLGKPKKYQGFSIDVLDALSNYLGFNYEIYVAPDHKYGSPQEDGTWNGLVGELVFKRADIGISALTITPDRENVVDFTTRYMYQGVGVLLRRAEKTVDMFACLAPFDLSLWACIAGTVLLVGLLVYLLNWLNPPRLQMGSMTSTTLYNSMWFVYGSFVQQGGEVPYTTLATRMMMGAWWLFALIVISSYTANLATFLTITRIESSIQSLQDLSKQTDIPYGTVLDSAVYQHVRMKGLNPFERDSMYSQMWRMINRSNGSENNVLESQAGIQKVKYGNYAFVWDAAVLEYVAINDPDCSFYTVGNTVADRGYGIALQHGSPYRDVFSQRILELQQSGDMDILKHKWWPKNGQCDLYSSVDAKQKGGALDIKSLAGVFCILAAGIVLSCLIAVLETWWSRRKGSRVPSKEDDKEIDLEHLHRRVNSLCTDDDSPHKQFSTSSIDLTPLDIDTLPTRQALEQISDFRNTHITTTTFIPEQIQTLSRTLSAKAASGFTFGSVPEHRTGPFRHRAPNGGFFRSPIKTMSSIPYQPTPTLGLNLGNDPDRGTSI
Excerpt: (§1) All cDNAs for expression in Xenopus oocytes were cloned into the vector pSGEM[30]. Point mutants of GluD2-Lc were constructed by overlap extension PCR with mutagenic oligonucleotide primers. The GluD2-Lc-(H)GluN1 chimera was constructed by transferring the S1- and S2-encoding sequences from GluD2-LBD-(H)GluN1 to GluD2-Lc via overlap extension PCR using tail primers. The S1 and S2 sequences were transferred separately, yielding GluD2-Lc-(HS1)GluN1 and GluD2-Lc-(HS2)GluN1 constructs. GluD2-Lc-(H)GluN1 was then produced from these by another overlap extension PCR. Complementary RNA (cRNA) for injection into oocytes was synthesised from 1 μg of linearised template DNA with the mMESSAGE mMACHINE in vitro transcription kit (Ambion, Austin, TX, USA).
(§2) Oocytes were obtained by surgically removing parts of the ovaries from Xenopus laevis (Nasco, Fort Atkinson, WI, USA) anaesthetised with 1.5 g/L 3-aminobenzoic acid ethylester (Sigma, Taufkirchen, Germany). […] Oocytes were injected with 11 ng cRNA (10 ng of each cRNA for co-expression of GluN1 and GluN2A) using a nanoliter injector (WPI, Sarasota, FL, USA). Four days after cRNA injection, current responses were recorded under voltage clamp at –70 mV with a Turbo Tec-10CD amplifier (npi electronic, Tamm, Germany) controlled by Patchmaster software (HEKA, Lambrecht, Germany). Currents were filtered with a 20 Hz low-pass filter and then digitised with a sampling rate of 50 Hz. Recording electrodes were pulled from borosilicate glass (Hilgenberg, Malsfeld, Germany) with an L/M-3P-A vertical pipette puller (List-Medical), filled with 3 M KCl, and had resistances of 0.5–5 MΩ (voltage electrode) or 0.5–1.5 MΩ (current electrode). Recordings were performed in a 50 μL chamber under constant superfusion with extracellular solution at a flow rate of 3–5 mL/min. […] Finally, Ba-NFR and then NMDGR were applied again to check for reversibility.

GluD2-Lc(A686S) = molecular target: T2, GluD2-Lc(A686S) (Rattus norvegicus, UniProt Q63226, A654T/A686S); experiment: as above; assay type: cell-based; settings: fraction of spontaneous current inhibited by saturating D-serine
T2 construct: the function of full-length receptors as well, we introduced them into the GluD2 lurcher mutant (GluD2-Lc); expressed in transfected cells; host or cells: Xenopus laevis oocytes injected with cRNA
T2 sequence (Q63226 24-1007 A654T/A686S): T1 sequence (Q63226 24-1007 D542Y/Y543Q/S544G/A654T) with Y519D, Q520Y, G521S, A663S
Excerpt: as §1, §2

Compound: N[C@H](CO)C(=O)O [D-serine]
- D-serine efficacy Mean ± SEM (GluD2-Lc-(HS1)GluN1): 29% and 29.1 ± 1.1%
- D-serine efficacy Mean ± SEM (GluD2-Lc(A686S)): 43.9 ± 0.7%
